Assay results taken from article PMC11571207, “Stereorandomized Oncocins with Preserved Ribosome Binding and Antibacterial Activity” (Journal of Medicinal Chemistry, 2024).
≈ marks a conversion by molar mass, not a printed value. Non-standard residues stand in square brackets, D forms with d. Residues, ends and D or L forms follow the SMILES beside them. No end group written: not given here.

Columns and labels:
[1] = test system: P. aeruginosa PAO1; assay: microbe, parasite or virus in culture; conditions: for MIC P. aeruginosa, 12.5% MHB / MIC P. aeruginosa, Full MHB: P. aeruginosa PAO1, 16–20 h at 37 °C; for MIC P. aeruginosa, 12.5% MHB: 12.5% Müller–Hinton medium; for MIC P. aeruginosa, Full MHB: full Müller–Hinton medium; for MIC P. aeruginosa PAO1: supplement CSV
Method in brief: (§1)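 Read-out was visible growth after MTT addition, the MIC being the lowest inhibitory peptide concentration. Bacteria grown to log phase in LB were exposed in MH medium to peptide from 64 μg/mL in twofold dilutions for 15-18h at 37°C.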

[2] = test system: S. aureus COL (MRSA); assay: microbe, parasite or virus in culture; conditions: for MIC S. aureus, 12.5% MHB / MIC S. aureus, Full MHB: S. aureus COL (MRSA), 16–20 h at 37 °C; for MIC S. aureus, 12.5% MHB: 12.5% Müller–Hinton medium; for MIC S. aureus, Full MHB: full Müller–Hinton medium; for MIC S. aureus COL (MRSA): supplement CSV
Method in brief: as §1

[3] = test system: K. pneumoniae NCTC 418; assay: microbe, parasite or virus in culture; conditions: for MIC K. pneumoniae, 12.5% MHB / MIC K. pneumoniae, Full MHB: K. pneumoniae NCTC 418, 16–20 h at 37 °C; for MIC K. pneumoniae, 12.5% MHB: 12.5% Müller–Hinton medium; for MIC K. pneumoniae, Full MHB: full Müller–Hinton medium; for MIC K. pneumoniae NCTC418: supplement CSV
Method in brief: as §1

[4] = test system: A. baumannii ATCC19606; assay: microbe, parasite or virus in culture; conditions: for MIC A. baumannii, 12.5% MHB / MIC A. baumannii, Full MHB: A. baumannii ATCC19606, 16–20 h at 37 °C; for MIC A. baumannii, 12.5% MHB: 12.5% Müller–Hinton medium; for MIC A. baumannii, Full MHB: full Müller–Hinton medium; for MIC A. baumannii ATCC19606: supplement CSV
Method in brief: as §1

[5] = test system: E. coli W3110; assay: microbe, parasite or virus in culture; conditions: for MIC E. coli, 12.5% MHB / MIC E. coli, Full MHB: E. coli W3110, 16–20 h at 37 °C, broth microdilution; for MIC E. coli, 12.5% MHB: 12.5% Müller–Hinton medium; for MIC E. coli, Full MHB: full Müller–Hinton medium; for MIC E. coli W3110: supplement CSV
Method in brief: as §1

[6] = test system: E. coli ribosome, U2506 of the 23S rRNA; assay: Ribosome footprinting (CMCT modification of U2506); format: binding; conditions: 1 μM peptide, 10.5 μM CMCT, purified E. coli ribosomes (5 pmol), 25 °C; primer extension, sequencing gel
Description: A 5 mL culture of E. coli MG1655 (WT-cells) was grown in LB overnight (220 rpm, 37 °C). One liter LB medium was inoculated, and bacteria were grown to OD = 0.6 (220 rpm. 37 °C); cells were centrifuged in centrifuge bottles, and the pellet was resuspended in ice-cold water and transferred in 50 mL falcon tubes. Falcon tubes were centrifuged, the supernatant was removed, the pellet was resuspended in 15 mL polysome buffer (TRIS/HCl pH 7.5 20 mM, NH4Cl 100 mM, MgCl2 10 mM, EDTA 0.5 mM, β-mercaptoethanol 60 mM), frozen dropwise in N2 (l), and stored at −80 °C. The cells were ground in CryoMil with the standard program (1 min precooling, 2 min grinding 5/s, 2 min cooling, 2 min grinding 5/s). The powder was transferred in 50 mL falcon tubes containing N2 (l) and stored at −80 °C. The lysates were thawed with a water bath (30 °C), put on ice, transferred to precooled Eppendorf tubes, and centrifuged (5000 g, 2 min, 4 °C). The clear lysate was transferred to new precooled tubes, centrifuged (14 000 g, 10 min, 4 °C), and the supernatant was transferred to new precooled tubes. 300 mL of clear lysate was loaded on a 10–50% sucrose gradient in CMCT buffer (K-borate buffer pH 8 80 mM, MgCl2 25 mM, NH4Cl 100 mM) and ultracentrifuged (3 h, 234 050 g, 4 °C). The fractions containing monosomes and polysomes were collected and ultracentrifuged overnight (16 h, 260 800 g, 4 °C). The supernatant was discarded, and the pellet was washed with ice-cold CMCT buffer. The ribosomes were resuspended in 100 μL CMCT buffer with a mini magnetic stirring bar and stored on ice. The concentration of ribosomes was measured in 1/200 dilution in water.
Ribosomes (5 pmol) were mixed with 8 μL of CMCT buffer, the compound of interest 1 μM, and water to a final volume of 20 μL in a precooled tube and incubated at 25 °C for 10 min. 20 μL of CMCT (10.5 μM) in water was added and incubated at 25 °C for 30 min. The reaction was stopped with 160 μL of EDTA (30 μM), and the samples were stored on ice.
160 μL portion of RNA resuspension buffer and 40 μL of 10% SDS were added, and the samples were vigorously resuspended. 400 μL of prewarmed acid phenol was added, and the samples were incubated on a thermomixer (5 min, 1200 rpm, 65 °C). The samples were put on ice for 5 min and centrifuged (5 min, 14 000 g, RT). The watery phase was transferred to a new precooled tube, 400 μL of phenol–chloroform–isoamyl alcohol (4 °C) was added, and the samples were mixed (5 min, 1200 rpm, RT). The samples were centrifuged again (5 min, 14 000g, RT), and the watery phase was transferred to another precooled tube. 34 μL of 3 M NaOAc pH 5.5, 0.8 μL of Glycoblue and 400 μL of isopropanol were added, and the samples were incubated for 3 h at −80 °C. The samples were then centrifuged (40 min, 21 000g, 4 °C), and the pellet was washed with ice-cold 70% EtOH. The residual liquid was removed, and the samples were dried (5 min, 37 °C). The samples were resuspended in 20 μL of water, the concentration was measured, and the samples were −80 °C.
Primers designed to probe the positions 2506 of the 23S rRNA (5-[sequence]-3′) were labeled with radioactive phosphate (γ^32 P-ATP). […] To prepare primers for one reaction, 1 μL of primer (0.3 μM), 0.4 μL of 5× PNK-buffer, 0.25 μL of water, 0.2 μL of γ^32 P-ATP, and 0.15 μL of T4 PNK were mixed and incubated at 37 °C.

Compound | MIC P. aeruginosa, 12.5% MHB [1] | MIC P. aeruginosa, Full MHB [1] | MIC P. aeruginosa PAO1 ([1]; 12.5% MH pH 7.4) | MIC P. aeruginosa PAO1 ([1]; full MH pH 7.4) | MIC S. aureus, 12.5% MHB [2] | MIC S. aureus, Full MHB [2] | MIC S. aureus COL (MRSA) ([2]; 12.5% MH pH 7.4) | MIC S. aureus COL (MRSA) ([2]; full MH pH 7.4) | MIC K. pneumoniae, 12.5% MHB [3] | MIC K. pneumoniae, Full MHB [3] | MIC K. pneumoniae NCTC418 ([3]; 12.5% MH pH 7.4) | MIC K. pneumoniae NCTC418 ([3]; full MH pH 7.4) | MIC A. baumannii, 12.5% MHB [4] | MIC A. baumannii, Full MHB [4] | MIC A. baumannii ATCC19606 ([4]; 12.5% MH pH 7.4) | MIC A. baumannii ATCC19606 ([4]; full MH pH 7.4) | MIC E. coli, 12.5% MHB [5] | MIC E. coli, Full MHB [5] | MIC E. coli W3110 ([5]; 12.5% MH pH 7.4) | MIC E. coli W3110 ([5]; full MH pH 7.4) | also measured
CC[C@@H](C)[C@@H](NC(=O)[C@@H](CCCNC(=N)N)NC(=O)[C@@H](CCCNC(=N)N)NC(=O)[C@H]1CCCN1C(=O)[C@H]1CCCN1C(=O)[C@@H](CCCNC(=N)N)NC(=O)[C@H]1CCCN1C(=O)[C@@H](CCCNC(=N)N)NC(=O)[C@H]1CCCN1C(=O)[C@@H](CC(C)C)NC(=O)[C@@H](Cc1ccc(O)cc1)NC(=O)[C@H]1CCCN1C(=O)[C@H]1CCCN1C(=O)[C@@H](CCCCN)NC(=O)[C@@H](CC(=O)O)NC(=O)[C@H](N)C(C)C)C(=O)N[C@H](Cc1ccc(O)cc1)C(=O)N[C@H](CC(N)=O)C(=O)N[C@H](CCCNC(=N)N)C(N)=O [D-Onc] (H-[dV][dD][dK][dP][dP][dY][dL][dP][dR][dP][dR][dP][dP][dR][dR][dI][dY][dN][dR]-NH2) | 8 µg/mL (≈ 3.35 µM) | > 64 µg/mL | 8 µg/mL (≈ 3.35 µM) | >64 µg/mL | >64 / 64 μg/mL | >64 / 64 μg/mL | 64 µg/mL (≈ 26.8 µM) | >64 µg/mL | > 16 µg/mL | > 64 µg/mL | >16 µg/mL | >64 µg/mL | 16 µg/mL (≈ 6.69 µM) | > 64 µg/mL | 16 µg/mL (≈ 6.69 µM) | >64 µg/mL | 8 µg/mL (≈ 3.35 µM) | 32 µg/mL (≈ 13.4 µM) | 8 µg/mL (≈ 3.35 µM) | 32 µg/mL (≈ 13.4 µM) | –
CC[C@H](C)[C@H](NC(=O)[C@H](CCCNC(=N)N)NC(=O)[C@H](CCCNC(=N)N)NC(=O)[C@@H]1CCCN1C(=O)[C@@H]1CCCN1C(=O)[C@H](CCCNC(=N)N)NC(=O)[C@@H]1CCCN1C(=O)[C@H](CCCNC(=N)N)NC(=O)[C@@H]1CCCN1C(=O)[C@@H](CC(C)C)NC(=O)[C@H](Cc1ccc(O)cc1)NC(=O)[C@@H]1CCCN1C(=O)[C@@H]1CCCN1C(=O)[C@H](CCCCN)NC(=O)[C@H](CC(=O)O)NC(=O)[C@@H](N)C(C)C)C(=O)N[C@@H](Cc1ccc(O)cc1)C(=O)N[C@@H](CC(N)=O)C(=O)N[C@@H](CCCNC(=N)N)C(N)=O [DL7-Onc] (H-VDKPPY[dL]PRPRPPRRIYNR-NH2) | > 16 µg/mL | > 64 µg/mL | >16 µg/mL | >64 µg/mL | >64 / >64 μg/mL | >64 / >64 μg/mL | >64 µg/mL | >64 µg/mL | > 16 µg/mL | > 64 µg/mL | >16 µg/mL | >64 µg/mL | > 16 µg/mL | > 64 µg/mL | >16 µg/mL | >64 µg/mL | 8 µg/mL (≈ 3.35 µM) | > 64 µg/mL | 8 µg/mL (≈ 3.35 µM) | >64 µg/mL | –
CC[C@H](C)[C@H](NC(=O)[C@@H](CCCNC(=N)N)NC(=O)[C@H](CCCNC(=N)N)NC(=O)[C@@H]1CCCN1C(=O)[C@@H]1CCCN1C(=O)[C@H](CCCNC(=N)N)NC(=O)[C@@H]1CCCN1C(=O)[C@H](CCCNC(=N)N)NC(=O)[C@@H]1CCCN1C(=O)[C@H](CC(C)C)NC(=O)[C@H](Cc1ccc(O)cc1)NC(=O)[C@@H]1CCCN1C(=O)[C@@H]1CCCN1C(=O)[C@H](CCCCN)NC(=O)[C@H](CC(=O)O)NC(=O)[C@@H](N)C(C)C)C(=O)N[C@@H](Cc1ccc(O)cc1)C(=O)N[C@@H](CC(N)=O)C(=O)N[C@H](CCCNC(=N)N)C(N)=O [Onc112, reference compound] (H-VDKPPYLPRPRPPR[dR]IYN[dR]-NH2) | 4 µg/mL (≈ 1.67 µM) | 64 µg/mL (≈ 26.8 µM) | 4 µg/mL (≈ 1.67 µM) | 64 µg/mL (≈ 26.8 µM) | 32 µg/mL (≈ 13.4 µM) | > 64 µg/mL | 32 µg/mL (≈ 13.4 µM) | >64 µg/mL | 2 µg/mL (≈ 0.837 µM) | 4 µg/mL (≈ 1.67 µM) | 2 µg/mL (≈ 0.837 µM) | 4 µg/mL (≈ 1.67 µM) | 4 µg/mL (≈ 1.67 µM) | 32 µg/mL (≈ 13.4 µM) | 4 µg/mL (≈ 1.67 µM) | 32 µg/mL (≈ 13.4 µM) | 2 µg/mL (≈ 0.837 µM) | 4 µg/mL (≈ 1.67 µM) | 2 µg/mL (≈ 0.837 µM) | 4 µg/mL (≈ 1.67 µM) | –
VDKPPYLPRPRPPRRIYNR [sr14Nterm-Onc] (VDKPPYLPRPRPPRRIYNR-NH2; also: residues 1-14 stereorandomized (1:1 L/D mixture)) [oncocin with the essential 14-residue N-terminus stereorandomized] | > 16 µg/mL | > 64 µg/mL | >16 µg/mL | >64 µg/mL | >64 / >64 μg/mL | >64 / >64 μg/mL | >64 µg/mL | >64 µg/mL | > 16 µg/mL | > 64 µg/mL | >16 µg/mL | >64 µg/mL | 16 µg/mL | 64 µg/mL | 16 µg/mL | 64 µg/mL | 4 µg/mL | 64 µg/mL | 4 µg/mL | 64 µg/mL | Protection of U2506 of 23S rRNA from CMCT modification (band at C2507) [6]: did not protect U2506 from CMCT modification
VDKPPYLPRPRPPRRIYNR-NH2 [L-Onc, reference compound] | 16 µg/mL | > 64 µg/mL | 16 µg/mL | >64 µg/mL | 32 µg/mL | > 64 µg/mL | 32 µg/mL | >64 µg/mL | 4 / 4 μg/mL | 4 / 4 μg/mL | 4 µg/mL | 4 µg/mL | 4 µg/mL | 32 µg/mL | 4 µg/mL | 32 µg/mL | 2 µg/mL | 4 µg/mL | 2 µg/mL | 4 µg/mL | –
polymyxin B [PMB, reference compound] | 1 µg/mL | 0.5 µg/mL | 1 µg/mL | 0.5 µg/mL | >16 / 16 μg/mL | >16 / 16 μg/mL | 16 µg/mL | >16 µg/mL | 1 µg/mL | 0.5 µg/mL | 1 µg/mL | 0.5 µg/mL | 0.5 µg/mL | 0.25 µg/mL | 0.5 µg/mL | 0.25 µg/mL | 0.5 µg/mL | 0.25 µg/mL | 0.5 µg/mL | 0.25 µg/mL | –
